{"source": "patent US20050013862A1", "about": "“Functional powders for oral delivery” (Vectura Limited, priority 2001, published 2005)", "assay": "Twin Stage Impinger fine particle fraction", "type": "physicochemical", "settings": "glass, 12.8 mm jet", "source_text": "A Twin Stage Impinger Apparatus (glass with a 12.8 mm jet) was used to determine the fine particle fraction of the formulations of Examples 10, 11 (steps 1 & 2), 11 (step 1 only), 14, and 15, with the following results: […]"}
{"smiles": "COc1ccc2c(c1)c(CC(=O)O)c(C)n2C(=O)c1ccc(Cl)cc1", "note": "[Raw indomethacin (pulverized), indomethacin]", "values": [{"measurement": "Average % Fine Particle Fraction at 601/min (n = 5)", "value": 3.89, "unit": "%"}]}
